These results are taken from ChEMBL document CHEMBL1136293, “Synthesis and evaluation of tripeptidyl alpha-ketoamides as human rhinovirus 3C protease inhibitors” (Bioorg Med Chem Lett, 2003).

The structures appear in SMILES notation.

Test [1] relates to rhinovirus B14. Put plainly: (§1) Antiviral activity against human rhinovirus-14 (HRV-14) in HeLa-cells using cell assay. Type of test: functional, organism-based, human rhinovirus type 14. The note with it: Rhinovirus B.
Test [2] concerns HeLa. Nature of the test: Cytotoxicity against HeLa cells was determined by using XTT cytotoxicity assay. The test is classed as functional. The note with it: Homo sapiens, read-out: TC50 (the source's name). On the technique in general: Tetrazolium assays rely on reduction of a dye to a coloured formazan, in cell work by metabolically active cells.
In test [3] the test system is HeLa. Put plainly: Antiviral activity against human rhinovirus-16 (HRV-16) in HeLa-cells using cell assay. Type of test: functional, cell-based.
In test [4] the target is T1, Human rhinovirus A protease (Human rhinovirus sp., UniProt Q4U254).
T1 sequence (Q4U254 whole entry): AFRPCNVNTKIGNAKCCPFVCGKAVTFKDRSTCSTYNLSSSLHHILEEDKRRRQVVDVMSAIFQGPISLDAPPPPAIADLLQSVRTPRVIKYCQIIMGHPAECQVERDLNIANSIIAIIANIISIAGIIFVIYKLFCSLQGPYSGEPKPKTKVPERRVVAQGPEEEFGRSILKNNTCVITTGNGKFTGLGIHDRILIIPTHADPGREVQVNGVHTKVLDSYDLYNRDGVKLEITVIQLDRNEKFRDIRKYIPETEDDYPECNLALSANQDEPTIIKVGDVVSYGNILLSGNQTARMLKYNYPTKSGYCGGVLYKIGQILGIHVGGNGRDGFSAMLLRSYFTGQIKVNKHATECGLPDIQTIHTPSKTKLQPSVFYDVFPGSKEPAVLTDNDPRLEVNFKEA
Nature of the test: Antiviral activity against human rhinovirus-14 (HRV-14) 3C protease using enzyme assay. Type of test: functional, rhinovirus B14.

In test [5] the target is T1, Human rhinovirus A protease. Put plainly: Antiviral activity against human rhinovirus-14 (HRV-14) 3C protease using enzyme assay; inactive. The test is classed as functional, rhinovirus B14.
The test system of test [6] is HeLa. Nature of the test: Antiviral activity against human rhinovirus-16 (HRV-16) in HeLa-cells using cell assay; inactive. Type of test: functional, cell-based.
In test [7] the test system is HeLa. Described as §1. The test is classed as functional, cell-based.

One may read the EC50 as the concentration needed to bring the measured effect to its halfway point. Regarding `CCCC(NC(=O)[C@@H]1[C@H]2CCC[C@H]2CN1C(=O)[C@@H](NC(=O)OC(C)C)C(C)(C)C)C(=O)C(=O)N[C@@H](C)c1ccccc1` (some centres not stated), the EC50 in test [1] stood at 7.7 µM; in test [3] it was 25.7 µM. For the same molecule, the CC50 in test [2] came out at 57.8 µM.
What is called Ki is a dissociation constant, usually derived from enzyme kinetics or from competition with a known ligand. Low values mean tighter binding, high ones weaker binding. Regarding `CCCC(NC(=O)C(Cc1ccccc1)NC(=O)[C@@H](NC(=O)OC(C)C)C(C)C)C(=O)C(=O)N[C@@H](C)c1ccccc1` (some centres not stated), the EC50 in test [1] turned out to be 1 µM; in test [3] it was 10.1 µM. In test [2], the CC50 worked out at 62 µM. Moreover, in test [4], the inhibition constant Ki stood at 0.5 µM.
The molecule `CCC[C@H](NC(=O)[C@H](Cc1ccccc1)NC(=O)[C@@H](NC(=O)OC(C)(C)C)C(C)C)C(=O)N[C@@H](C)c1ccccc1` returned a concentration giving a half-maximal response (EC50) in test [1] above 20 µM. Further, the CC50 in test [2] is above 100 µM. In test [4], this molecule came in with a Ki of 7.4 µM.
The molecule `CCCC(NC(=O)[C@@H]1[C@H]2CC[C@H](F)[C@H]2CN1C(=O)[C@@H](NC(=O)OC(C)C)C(C)(C)C)C(=O)C(=O)N[C@@H](C)c1ccccc1` (some centres not stated) returned a concentration giving a half-maximal response (EC50) in test [1] of 10 µM. For the same molecule, in test [2], the CC50 was determined as 60.4 µM. In test [4], this molecule yielded an inhibitory constant (Ki) of 9.8 µM.
The molecule `CCC[C@H](NC(=O)[C@H](Cc1ccccc1)NC(=O)[C@@H](NC(=O)OC(C)C)C(C)C)C(=O)C(=O)N[C@H](C)c1ccccc1` showed a 50% effective concentration (EC50) in test [1] of 11.1 µM. The molecule further gave an inhibition constant (Ki) in test [4] of 6.5 µM.
`CCCC(NC(=O)[C@@H]1[C@H]2CCC[C@H]2CN1C(=O)[C@@H](NC(=O)OC(C)C)C(C)C)C(=O)C(=O)N[C@@H](C)c1ccccc1` (some centres not stated): the EC50 is 2.2 µM in test [1] and around 10 µM in test [3]. Besides, the CC50 in test [2] turned out to be 65.4 µM. The same molecule displayed an inhibition constant (Ki) in test [4] of 3 µM.
In the case of `CCCC(NC(=O)C1(NC(=O)[C@@H](NC(=O)OC(C)C)C(C)C)CCCC1)C(=O)C(=O)N[C@@H](C)c1ccccc1` (some centres not stated), the EC50 in test [1] was above 20 µM; in test [6], “Not Active”. Also, the CC50 in test [2] is above 100 µM. Also, in test [5], the Ki result is “Not Active”.
`CCC[C@H](NC(=O)[C@H](Cc1ccccc1)NC(=O)[C@@H](NC(=O)OC(C)(C)C)C(C)C)C(=O)NC[C@H](C)c1ccccc1` showed an EC50 in test [1] above 15 µM. In addition, in test [2], the CC50 was above 100 µM. In addition, the inhibition constant Ki in test [4] worked out at 29.1 µM.
For `CCCC(NC(=O)[C@@H]1[C@H]2CC[C@H](F)[C@H]2CN1C(=O)[C@@H](NC(=O)OC(C)C)C(C)C)C(=O)C(=O)N[C@@H](C)c1ccccc1` (some centres not stated), the EC50 in test [1] worked out at 5.8 µM. For the same molecule, the CC50 in test [2] worked out at 82 µM. Besides, the Ki in test [4] stood at 5.5 µM.
Molecule `CCC[C@H](NC(=O)[C@H](Cc1ccccc1)NC(=O)[C@@H](NC(=O)OC(C)(C)C)C(C)C)C(=O)C(=O)N[C@H](C)c1ccccc1` returned an EC50 in test [1] of 1.3 µM. In addition, the CC50 in test [2] turned out to be 30.3 µM. The molecule also displayed a Ki in test [4] of 0.71 µM.
In general, IC50 refers to the concentration needed to halve the response being measured. Higher therefore signals a need for much substance. `CCC[C@H](NC(=O)[C@H](Cc1ccccc1)NC(=O)[C@@H](NC(=O)OC(C)C)C(C)C)C(=O)C(=O)NCc1ccccc1` returned an EC50 in test [1] of 5.3 µM. In test [2], the CC50 was above 100 µM. Further, affinity in test [4] was put at a Ki of 4.6 µM. Also, the 50% inhibitory concentration (IC50) in test [7] was 2.7 µM.
In test [1], `CCC[C@H](NC(=O)[C@H](Cc1ccccc1)NC(=O)[C@@H](NC(=O)OC(C)C)C(C)C)C(=O)C(=O)N[C@@H](C)c1ccccc1` came in with a concentration giving a half-maximal response (EC50) of 0.85 µM. Further, the CC50 in test [2] was above 100 µM. In test [4], the IC50 amounted to 0.17 µM and the inhibition constant (Ki) came to 0.17 µM. Moreover, the 50% effective concentration (EC50) in test [3] was around 10 µM.
The molecule `CCC[C@H](NC(=O)[C@H](Cc1ccccc1)NC(=O)[C@@H](NC(=O)OC(C)C)C(C)C)C(=O)C(=O)N[C@@H](C)C1CCCCC1` had an EC50 in test [1] above 20 µM. The CC50 in test [2] amounted to 54.6 µM. Besides, the inhibition constant Ki in test [4] is 6.5 µM.
As for `CCCC(NC(=O)C(Cc1ccc(F)cc1)NC(=O)[C@@H](NC(=O)OC(C)C)C(C)C)C(=O)C(=O)N[C@@H](C)c1ccccc1` (some centres not stated), the EC50 amounted to 2.1 µM in test [1] and 37.3 µM in test [3]. Moreover, the CC50 in test [2] was above 100 µM. This molecule also showed an inhibitory constant (Ki) in test [4] of 1.36 µM.
In the same order, the values of `CCCC(NC(=O)C1CCCN1C(=O)[C@@H](NC(=O)OC(C)C)C(C)C)C(=O)C(=O)N[C@@H](C)c1ccccc1` (some centres not stated) are 10.4 µM, 43.3 µM, above 100 µM and 17.4 µM.
